Values quoted from earlier work in PMC4871733 (Nature chemical biology, 2016).

Legend:
[1] = after 30 minute exposure
[2] = after 30 minute exposure; remark: listed apart in the source
[3] = after 30 minute exposure; remark: listed apart in the source
[4] = not given; remark: listed apart in the source

- Efflux ratio: 1.35
- Stability in human liver microsomes [1]: > 90%
- Stability in mouse liver microsomes [2]: > 90%
- Stability in rat liver microsomes [3]: > 90%
- Aqueous kinetic solubility [4]: 79 µM
Structure (SMILES): Cn1c2cc([S+](C)[O-])sc2c2cnn(Cc3cccc(N)c3)c(=O)c21 (centres unmarked) [ML265]
